The text below walks through data of US20240158392A1 (Janssen Biotech, Inc., priority 2021, published 2024).

For orientation: pIC50 means −log10 of the IC50, conventionally taken in molar units. A higher pIC50 goes with a low IC50. In general, IC50 refers to the concentration at which inhibition is half-maximal.

Molecules are shown by their SMILES. pIC50: −log10 of the molar value.

Chain of SIK2 (Q9H0K1 whole entry, species assumed): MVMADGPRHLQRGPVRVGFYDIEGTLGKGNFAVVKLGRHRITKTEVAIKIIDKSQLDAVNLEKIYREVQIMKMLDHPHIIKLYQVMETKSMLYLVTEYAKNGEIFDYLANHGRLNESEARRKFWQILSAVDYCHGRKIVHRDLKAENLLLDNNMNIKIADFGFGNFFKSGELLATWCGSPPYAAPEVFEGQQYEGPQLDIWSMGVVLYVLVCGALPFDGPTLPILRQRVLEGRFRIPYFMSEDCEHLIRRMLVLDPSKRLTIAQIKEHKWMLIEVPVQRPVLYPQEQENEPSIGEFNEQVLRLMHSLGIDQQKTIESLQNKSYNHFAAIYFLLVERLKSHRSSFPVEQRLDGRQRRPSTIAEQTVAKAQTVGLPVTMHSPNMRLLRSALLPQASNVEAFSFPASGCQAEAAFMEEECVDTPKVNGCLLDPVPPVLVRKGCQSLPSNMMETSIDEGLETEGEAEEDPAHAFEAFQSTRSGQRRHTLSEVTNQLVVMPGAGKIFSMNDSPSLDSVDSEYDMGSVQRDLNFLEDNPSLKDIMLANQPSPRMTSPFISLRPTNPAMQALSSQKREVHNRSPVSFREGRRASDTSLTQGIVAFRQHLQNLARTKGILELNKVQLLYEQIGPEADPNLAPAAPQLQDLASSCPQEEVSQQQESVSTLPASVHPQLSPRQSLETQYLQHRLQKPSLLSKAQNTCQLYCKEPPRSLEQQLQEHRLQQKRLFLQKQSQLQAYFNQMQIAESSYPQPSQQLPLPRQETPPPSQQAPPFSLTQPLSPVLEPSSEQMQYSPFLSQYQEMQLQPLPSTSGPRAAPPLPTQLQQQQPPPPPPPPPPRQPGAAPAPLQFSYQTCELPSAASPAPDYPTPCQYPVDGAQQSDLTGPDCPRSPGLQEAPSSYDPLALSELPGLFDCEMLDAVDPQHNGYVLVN

One test concerns the target SIK2 (Homo sapiens, UniProt Q9H0K1). Briefly: SIK2 Enzymatic Assay High Version 2 (High ATP).
Details: not given
The test is classed as biochemical. The method, boiled down:
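At room temperature, enzyme (6 nM, 2× final) was preincubated with compound for 30 min, then 6 mM ATP and 400 μM HDAC5tide (both 2× final) were added for 2 h. ADP formed was measured by ADP-Glo Max (2 h reagent, 1 h detection) using luminescence.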
`Cc1cc(Nc2cc3cc(-c4cc(C)ncc4O[C@H]4C[C@H]5COC[C@@H](C4)N5)ccn3n2)ncn1` [Example 396, 5-[2-methyl-5-[[(1R,5S,7s)-3-oxa-9-azabicyclo[3.3.1]nonan-7-yl]oxy]-4-pyridyl]-N-(6-methylpyrimidin-4-yl)pyrazolo[1,5-a]pyridin-2-amine] had a negative logarithm of the IC50 (pIC50) of 8.96.
In turn, `Cc1cc(-c2ccn3nc(Nc4cnccn4)cc3c2)c(O[C@H]2C[C@H]3COC[C@@H](C2)N3C)cn1` [Example 418, 5-[2-methyl-5-[[(1S,5R,7s)-9-methyl-3-oxa-9-azabicyclo[3.3.1]nonan-7-yl]oxy]-4-pyridyl]-N-pyrazin-2-yl-pyrazolo[1,5-a]pyridin-2-amine] gave a pIC50 greater than 9.07.
Still for that read-out and setting: then `CCNC(=O)c1ccc(Nc2cc3cc(-c4cc(C)ncc4O[C@H]4C[C@H]5COC[C@@H](C4)N5)ccn3n2)nn1` [Example 385, N-ethyl-6-[[5-[2-methyl-5-[[(1S,5R,7s)-3-oxa-9-azabicyclo[3.3.1]nonan-7-yl]oxy]-4-pyridyl]pyrazolo[1,5-a]pyridin-2-yl]amino]pyridazine-3-carboxamide], with 8.92; and `CNC(=O)c1c(C)cc(Nc2cc3cc(-c4cc(C)ncc4O[C@H]4C[C@H]5COC[C@@H](C4)N5C(C)=O)ccn3n2)nc1C` [Example 358, 6-[[5-[5-[[(1R,5S,7s)-9-acetyl-3-oxa-9-azabicyclo[3.3.1]nonan-7-yl]oxy]-2-methyl-4-pyridyl]pyrazolo[1,5-a]pyridin-2-yl]amino]-N,2,4-trimethyl-pyridine-3-carboxamide], with 8.11.
On the same count and under the same terms, then `CC#Cc1ccc(O[C@H]2C[C@H]3COC[C@@H](C2)N3)c(-c2ccn3nc(NC(=O)C4CC4)cc3c2)c1` [Example 479, N-[5-[2-[[(1R,5S)-3-oxa-9-azabicyclo[3.3.1]nonan-7-yl]oxy]-5-prop-1-ynyl-phenyl]pyrazolo[1,5-a]pyridin-2-yl]cyclopropanecarboxamide], with 7.43; and `Cc1cc(-c2ccn3nc(Nc4ccc(C(F)(F)F)cn4)cc3c2)c(O[C@H]2C[C@H]3COC[C@@H](C2)N3C)cn1` [Example 411, 5-[2-methyl-5-[[(1S,5R,7s)-9-methyl-3-oxa-9-azabicyclo[3.3.1]nonan-7-yl]oxy]-4-pyridyl]-N-[5-(trifluoromethyl)-2-pyridyl]pyrazolo[1,5-a]pyridin-2-amine], with 8.82.
The molecule `Cc1cc(-c2ccn3nc(Nc4cc(C)nc(C)n4)cc3c2)c(OCC2CNS(=O)(=O)N2)cn1` (racemic) [Example 352, (rac-)-N-(2,6-dimethylpyrimidin-4-yl)-5-[5-[(1,1-dioxo-1,2,5-thiadiazolidin-3-yl)methoxy]-2-methyl-4-pyridyl]pyrazolo[1,5-a]pyridin-2-amine] gave a pIC50 of 8.51.
`[2H]C([2H])([2H])N1CC[C@H]1COc1cnc(C)cc1-c1ccn2nc(NC(=O)C3CC3)cc2c1` [Example 575, N-[5-[2-methyl-5-[[(2S)-1-(trideuteriomethyl)azetidin-2-yl]methoxy]-4-pyridyl]pyrazolo[1,5-a]pyridin-2-yl]cyclopropanecarboxamide]: the pIC50 is 7.15.
`CNC(=O)c1ccc(Nc2cc3cc(-c4cc(C)ncc4O[C@H]4C[C@H]5COC[C@@H](C4)N5)ccn3n2)nc1` [Example 173, 6-((5-(5-(((1R,5S,7s)-3-oxa-9-azabicyclo[3.3.1]nonan-7-yl)oxy)-2-methylpyridin-4-yl)pyrazolo[1,5-a]pyridin-2-yl)amino)-N-methylnicotinamide] had a pIC50 greater than 9.07.

The same test, now with this note: enzyme 6 nM, 6 mM ATP and 400 μM HDAC5tide (each 2× final concentration); 30 minutes pre-incubation, 2 hours; ADP-Glo Max luminescence; read-out: SIK2 high ATP IC50 (μM) (Test Example 2).
As for `Cc1cc(-c2ccn3nc(Nc4cc(C)nc(C)n4)cc3c2)c(OC[C@@H]2CCO[C@@H]2C)cn1` (single isomer, unassigned) [Example 207, N-(2,6-dimethylpyrimidin-4-yl)-5-(2-methyl-5-(((2*R,3*S)-2-methyltetrahydrofuran-3-yl)methoxy)pyridin-4-yl)pyrazolo[1,5-a]pyridin-2-amine], the half-inhibitory concentration (IC50) is 0.00878 µM.
Take `Cc1cc(-c2ccn3nc(Nc4cc(C)nc(C)n4)cc3c2)c(OCC2(C)COC2)cn1` [Example 546, N-(2,6-dimethylpyrimidin-4-yl)-5-[2-methyl-5-[(3-methyloxetan-3-yl)methoxy]-4-pyridyl]pyrazolo[1,5-a]pyridin-2-amine]: the IC50 amounted to 0.0239 µM.
As to `Cc1cc(-c2ccn3nc(Nc4cc(C)nc(C)n4)cc3c2)c(OCC2CC(=O)N(C)C2)cn1` (racemic) [Example 542, (rac-)-4-[[4-[2-[(2,6-dimethylpyrimidin-4-yl)amino]pyrazolo[1,5-a]pyridin-5-yl]-6-methyl-3-pyridyl]oxymethyl]-1-methyl-pyrrolidin-2-one], the IC50 was 0.0425 µM.
Consider `Cc1cc(Nc2cc3cc(-c4cc(OC(F)F)ncc4OCC(C)(C)C#N)ccn3n2)nc(N2CCOCC2)n1` [Example 710, 3-[[6-(difluoromethoxy)-4-[2-[(6-methyl-2-morpholino-pyrimidin-4-yl)amino]pyrazolo[1,5-a]pyridin-5-yl]-3-pyridyl]oxy]-2,2-dimethyl-propanenitrile], for which the IC50 amounted to 0.0094 µM.
For `Cc1cc(-c2ccn3nc(NC(=O)C4CC4)cc3c2)c(O[C@H]2CNC2(C)C)cn1` [Example 510, N-[5-[5-[(3S)-2,2-dimethylazetidin-3-yl]oxy-2-methyl-4-pyridyl]pyrazolo[1,5-a]pyridin-2-yl]cyclopropanecarboxamide], the IC50 came to 0.0614 µM.
With `Cc1cc(-c2ccn3nc(Nc4cc(C)nc(C)n4)cc3c2)c(OC[C@@](C)(N)C(F)(F)F)cn1` (single isomer, unassigned) [Example 270, (*R)-5-[5-(2-Amino-3,3,3-trifluoro-2-methyl-propoxy)-2-methyl-4-pyridyl]-N-(2,6-dimethylpyrimidin-4-yl)pyrazolo[1,5-a]pyridin-2-amine], the IC50 was determined as 0.0193 µM.
For `Cc1cc(-c2ccn3nc(Nc4cc(C)nc(C5CC5)n4)cc3c2)c(OCC(C)(C)O)cn1` [Example 229, 1-[[4-[2-[(2-cyclopropyl-6-methyl-pyrimidin-4-yl)amino]pyrazolo[1,5-a]pyridin-5-yl]-6-methyl-3-pyridyl]oxy]-2-methyl-propan-2-ol], the IC50 was found to be 0.00587 µM.
For `Cc1cc(-c2ccn3nc(NC(=O)C4CC4)cc3c2)c(OCC2(c3ccccc3)CNC2)cn1` [Example 470, N-[5-[2-methyl-5-[(3-phenylazetidin-3-yl)methoxy]-4-pyridyl]pyrazolo[1,5-a]pyridin-2-yl]cyclopropanecarboxamide], the IC50 turned out to be 0.00511 µM.
Take `Cc1cc(-c2ccn3nc(Nc4cc(C)nc(N5CCCC5)n4)cc3c2)c(O[C@H]2CC[C@H](O)CC2)cn1` [Example 287, 4-[[6-methyl-4-[2-[(6-methyl-2-pyrrolidin-1-yl-pyrimidin-4-yl)amino]pyrazolo[1,5-a]pyridin-5-yl]-3-pyridyl]oxy]cyclohexanol]: the IC50 was determined as 0.00144 µM.
As to `Cc1cc(-c2ccn3nc(Nc4nccc(C)c4F)cc3c2)c(OCC(C)(C)O)cn1` [Example 652, 1-[[4-[2-[(3-fluoro-4-methyl-2-pyridyl)amino]pyrazolo[1,5-a]pyridin-5-yl]-6-methyl-3-pyridyl]oxy]-2-methyl-propan-2-ol], the IC50 stood at 0.557 µM.
Regarding `CNc1nc(C)cc(Nc2cc3cc(-c4cc(OCC(F)F)ncc4OCC(C)(C)C#N)ccn3n2)n1` [Example 725, 3-[[6-(2,2-difluoroethoxy)-4-[2-[[6-methyl-2-(methylamino)pyrimidin-4-yl]amino]pyrazolo[1,5-a]pyridin-5-yl]-3-pyridyl]oxy]-2,2-dimethyl-propanenitrile], the IC50 was determined as 0.00405 µM.
As to `Cc1cc(-c2ccn3nc(Nc4cc(C)nc(C)n4)cc3c2)c(OCCC(C)(C)C#N)cn1` [Example 315, 4-[[4-[2-[(2,6-dimethylpyrimidin-4-yl)amino]pyrazolo[1,5-a]pyridin-5-yl]-6-methyl-3-pyridyl]oxy]-2,2-dimethyl-butanenitrile], the IC50 stood at 0.00406 µM.
Still for that read-out and setting: then `Cc1cc(Nc2cc3cc(-c4cc(OC(F)F)ncc4OCC(C)(C)C#N)ccn3n2)nn(C)c1=O` [Example 684, 3-[[6-(difluoromethoxy)-4-[2-[(1,5-dimethyl-6-oxo-pyridazin-3-yl)amino]pyrazolo[1,5-a]pyridin-5-yl]-3-pyridyl]oxy]-2,2-dimethyl-propanenitrile], with 0.0102 µM; and `CN1CC(Oc2cnc(Cl)cc2-c2ccn3nc(NC(=O)C4CC4)cc3c2)C1` [Example 491, N-[5-[2-chloro-5-(1-methylazetidin-3-yl)oxy-4-pyridyl]pyrazolo[1,5-a]pyridin-2-yl]cyclopropanecarboxamide], with 0.0152 µM; and `Cc1cc(-c2ccn3nc(NC(=O)C4CC4)cc3c2)c(O[C@@H]2CNC[C@@H]2F)cn1` [Example 279, N-[5-[5-[(3R,4S)-4-fluoropyrrolidin-3-yl]oxy-2-methyl-4-pyridyl]pyrazolo[1,5-a]pyridin-2-yl]cyclopropanecarboxamide], with 0.0032 µM.
As for `Cc1cc(Nc2cc3cc(-c4cc(OCC(F)F)ncc4OCC(C)(C)C#N)ccn3n2)nn(C)c1=O` [Example 693, 3-[[6-(2,2-difluoroethoxy)-4-[2-[(1,5-dimethyl-6-oxo-pyridazin-3-yl)amino]pyrazolo[1,5-a]pyridin-5-yl]-3-pyridyl]oxy]-2,2-dimethyl-propanenitrile], the IC50 stood at 0.0766 µM.
In the case of `Cc1cc(-c2ccn3nc(Nc4cc(C)nc(C)n4)cc3c2)c(OC[C@H](O)C2(C)CC2)cn1` (single isomer, unassigned) [Example 548, (*R)-2-[[4-[2-[(2,6-dimethylpyrimidin-4-yl)amino]pyrazolo[1,5-a]pyridin-5-yl]-6-methyl-3-pyridyl]oxy]-1-(1-methylcyclopropyl)ethanol], the IC50 was 0.0462 µM.
For the molecule `Cc1cc(-c2ccn3nc(Nc4cc(C)nc(C)n4)cc3c2)c(OC[C@@]2(C)CCOC2)cn1` (single isomer, unassigned) [Example 536, (*S)—N-(2,6-dimethylpyrimidin-4-yl)-5-[2-methyl-5-[(3-methyltetrahydrofuran-3-yl)methoxy]-4-pyridyl]pyrazolo[1,5-a]pyridin-2-amine], the IC50 is 0.0535 µM.
